{"source": "patent US20150030540A1", "about": "(Eli Lilly and Company, priority 2008, published 2015)", "key": {"tau": {"target": "T1, tau (Homo sapiens, UniProt P10636)", "T1 construct": "Native forms of tau (various isoforms, hyperphosphorylated) and amyloid aggregates are present in brain sections and therefore preferred for compound testing", "T1 sequence (P10636 623-758 limits assumed)": "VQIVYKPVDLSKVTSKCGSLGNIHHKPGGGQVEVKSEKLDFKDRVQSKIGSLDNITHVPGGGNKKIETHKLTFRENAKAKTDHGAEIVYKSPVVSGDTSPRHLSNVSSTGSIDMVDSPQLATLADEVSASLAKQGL", "assay": "KD (tau) binding", "conditions": "FIG. 2 legend, [18F] tracer; read-out: KD", "from_the_text": "(§1) When injected intravenously into mice, the Carbazole based compounds; in particular T807, T805 and T794 have shown excellent brain uptake. These compounds also display high binding affinity to tau fibrils. […] In neuropathological staining, compounds of the present invention stained amyloid plaques and/or tau aggregates.\n(§2) Furthermore, the selectivity can be evaluated in brains containing only Aβ plaques/no tau aggregates, Aβ plaques/and tau aggregates, and control brains. Unfortunately, there are no AD brains with only tau and no Aβ present. By testing radiolabeled tracers in these brain sections, one can more quantitative evaluate the relative binding strength (signal strength) and selectivity of various test compounds as they all contain the same radioactive tracer. For examples, if a test tracer binds only to tau, and not amyloid, it should show no signal in the Aβ plaques only brain sections. If a compound binds only to amyloid, it should show uptake in both types of brains. The difficulty of identifying and further quantifying selective compounds lies in the relative abundance of amyloid vs. tau, which is difficult to measure."}, "tau/Ab": {"test_system": "tau/Ab", "assay": "selectivity (tau/Ab)", "format": "binding", "from_the_text": "as §2"}, "[1]": {"assay": "GM Intensity (comp. with W372)", "format": "binding", "conditions": "compared with W372"}, "[2]": {"assay": "background in normal brain", "format": "binding", "from_the_text": "as §2"}, "tau/amyloid": {"test_system": "tau/amyloid", "assay": "Tx/tau/amyloid correlation", "format": "binding"}, "[3]": {"assay": "Brain uptake in rats and mice", "format": "in vivo"}, "[4]": {"assay": "Brain uptake after intravenous injection into mice", "format": "in vivo", "conditions": "injected intravenously into mice", "from_the_text": "as §1"}, "human hepatocytes": {"test_system": "human hepatocytes", "assay": "Metabolism in human hepatocytes", "format": "in vitro ADME"}, "AchE": {"target": "AchE (Homo sapiens, UniProt P22303)", "sequence (P22303 32-614)": "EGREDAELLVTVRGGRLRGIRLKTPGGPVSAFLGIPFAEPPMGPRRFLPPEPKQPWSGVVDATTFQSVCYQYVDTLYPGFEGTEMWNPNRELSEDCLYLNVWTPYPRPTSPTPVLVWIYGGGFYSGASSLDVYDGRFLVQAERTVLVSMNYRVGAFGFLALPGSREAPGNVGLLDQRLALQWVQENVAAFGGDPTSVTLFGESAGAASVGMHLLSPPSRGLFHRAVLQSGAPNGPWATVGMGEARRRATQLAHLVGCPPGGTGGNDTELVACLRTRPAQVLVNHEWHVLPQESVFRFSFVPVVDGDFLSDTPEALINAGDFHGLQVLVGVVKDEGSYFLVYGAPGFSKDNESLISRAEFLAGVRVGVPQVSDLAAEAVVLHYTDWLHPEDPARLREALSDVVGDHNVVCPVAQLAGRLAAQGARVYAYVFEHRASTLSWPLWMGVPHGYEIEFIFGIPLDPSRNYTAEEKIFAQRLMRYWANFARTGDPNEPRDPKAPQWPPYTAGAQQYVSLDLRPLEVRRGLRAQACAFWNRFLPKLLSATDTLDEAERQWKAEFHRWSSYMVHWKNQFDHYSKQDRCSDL", "assay": "AchE activity (IC50)", "format": "biochemical"}, "MAO-A": {"target": "T2, MAO-A (Homo sapiens, UniProt P21397)", "T2 sequence (P21397 1-527)": "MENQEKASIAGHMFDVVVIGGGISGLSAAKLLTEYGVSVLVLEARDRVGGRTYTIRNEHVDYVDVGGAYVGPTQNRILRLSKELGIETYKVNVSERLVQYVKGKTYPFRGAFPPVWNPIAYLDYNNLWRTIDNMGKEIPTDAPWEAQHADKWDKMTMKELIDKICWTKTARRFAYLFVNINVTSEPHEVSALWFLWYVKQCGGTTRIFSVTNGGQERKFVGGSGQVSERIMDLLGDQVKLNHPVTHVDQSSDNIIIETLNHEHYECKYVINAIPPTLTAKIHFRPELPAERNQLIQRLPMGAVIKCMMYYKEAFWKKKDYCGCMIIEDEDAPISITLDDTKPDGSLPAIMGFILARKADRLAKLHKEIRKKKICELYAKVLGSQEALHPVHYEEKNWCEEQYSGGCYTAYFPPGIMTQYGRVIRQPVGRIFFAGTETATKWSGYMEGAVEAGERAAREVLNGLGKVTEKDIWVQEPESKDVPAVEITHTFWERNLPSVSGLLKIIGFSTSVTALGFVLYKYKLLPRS", "assay": "MAO inhibition, MAO-A", "format": "biochemical"}, "MAO-B": {"target": "T3, MAO-B (Homo sapiens, UniProt P27338)", "T3 sequence (P27338 1-520)": "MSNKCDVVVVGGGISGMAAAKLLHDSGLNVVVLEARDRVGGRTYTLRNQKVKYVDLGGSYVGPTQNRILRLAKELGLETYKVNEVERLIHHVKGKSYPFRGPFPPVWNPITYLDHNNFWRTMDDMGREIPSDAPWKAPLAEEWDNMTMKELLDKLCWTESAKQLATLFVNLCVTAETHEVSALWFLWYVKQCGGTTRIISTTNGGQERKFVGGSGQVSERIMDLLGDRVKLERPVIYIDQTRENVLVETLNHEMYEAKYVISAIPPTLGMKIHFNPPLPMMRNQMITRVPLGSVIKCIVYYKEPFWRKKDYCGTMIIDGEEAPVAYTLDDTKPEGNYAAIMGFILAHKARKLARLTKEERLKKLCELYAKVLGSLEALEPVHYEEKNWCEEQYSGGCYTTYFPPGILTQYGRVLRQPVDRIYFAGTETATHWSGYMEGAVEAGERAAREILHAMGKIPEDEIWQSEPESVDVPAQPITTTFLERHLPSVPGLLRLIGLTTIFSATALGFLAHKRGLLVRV", "assay": "MAO inhibition, MAO-B", "format": "biochemical"}, "Norepinephrine transp.": {"target": "Norepinephrine transp. (Homo sapiens, UniProt P23975)", "sequence (P23975 whole entry)": "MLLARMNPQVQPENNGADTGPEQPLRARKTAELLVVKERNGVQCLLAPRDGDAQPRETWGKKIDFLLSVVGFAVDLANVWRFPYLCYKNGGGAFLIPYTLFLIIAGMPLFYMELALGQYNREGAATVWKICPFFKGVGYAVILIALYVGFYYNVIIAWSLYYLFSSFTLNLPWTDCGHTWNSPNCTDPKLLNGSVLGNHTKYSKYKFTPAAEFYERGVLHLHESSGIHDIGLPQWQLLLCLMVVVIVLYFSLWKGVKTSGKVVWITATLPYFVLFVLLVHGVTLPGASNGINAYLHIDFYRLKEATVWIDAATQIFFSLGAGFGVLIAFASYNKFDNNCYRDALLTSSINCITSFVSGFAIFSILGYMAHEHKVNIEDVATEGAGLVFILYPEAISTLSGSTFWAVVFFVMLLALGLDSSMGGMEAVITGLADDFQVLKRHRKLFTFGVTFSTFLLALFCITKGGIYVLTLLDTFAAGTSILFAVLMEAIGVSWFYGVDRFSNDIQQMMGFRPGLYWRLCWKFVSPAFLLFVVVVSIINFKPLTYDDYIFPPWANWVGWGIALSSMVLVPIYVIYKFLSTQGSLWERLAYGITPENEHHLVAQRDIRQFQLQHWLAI", "assay": "CNS selectivity panel: Norepinephrine transp.", "format": "binding", "conditions": "1 uM"}, "Dopamine transp.": {"target": "Dopamine transp. (Homo sapiens, UniProt Q01959)", "sequence (Q01959 whole entry)": "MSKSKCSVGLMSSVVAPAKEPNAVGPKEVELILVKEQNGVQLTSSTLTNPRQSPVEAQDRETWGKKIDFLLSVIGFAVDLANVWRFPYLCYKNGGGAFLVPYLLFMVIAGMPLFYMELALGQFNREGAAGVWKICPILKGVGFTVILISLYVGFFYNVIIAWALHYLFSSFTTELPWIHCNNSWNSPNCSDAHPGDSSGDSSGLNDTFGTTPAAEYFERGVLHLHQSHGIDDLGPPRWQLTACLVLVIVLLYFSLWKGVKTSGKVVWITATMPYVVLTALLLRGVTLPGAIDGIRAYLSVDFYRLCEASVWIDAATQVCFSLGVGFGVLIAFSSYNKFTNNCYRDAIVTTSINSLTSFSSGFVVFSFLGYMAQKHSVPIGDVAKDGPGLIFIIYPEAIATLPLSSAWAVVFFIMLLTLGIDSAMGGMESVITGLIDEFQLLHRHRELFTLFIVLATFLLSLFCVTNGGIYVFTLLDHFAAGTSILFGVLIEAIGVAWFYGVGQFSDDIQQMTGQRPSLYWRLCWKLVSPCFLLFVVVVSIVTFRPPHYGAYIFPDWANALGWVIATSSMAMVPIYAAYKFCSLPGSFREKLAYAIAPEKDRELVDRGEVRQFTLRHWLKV", "assay": "CNS selectivity panel: Dopamine transp.", "format": "binding", "conditions": "1 uM"}, "Glutamate, NMDA": {"test_system": "Glutamate, NMDA", "assay": "CNS selectivity panel: Glutamate, NMDA", "format": "binding", "conditions": "1 uM"}, "Monoamine transp.": {"test_system": "Monoamine transp.", "assay": "CNS selectivity panel: Monoamine transp.", "format": "binding", "conditions": "1 uM"}, "Serotonin 5-HT2c": {"target": "T4, Serotonin 5-HT2c (Homo sapiens, UniProt P28335)", "T4 sequence (P28335 33-458)": "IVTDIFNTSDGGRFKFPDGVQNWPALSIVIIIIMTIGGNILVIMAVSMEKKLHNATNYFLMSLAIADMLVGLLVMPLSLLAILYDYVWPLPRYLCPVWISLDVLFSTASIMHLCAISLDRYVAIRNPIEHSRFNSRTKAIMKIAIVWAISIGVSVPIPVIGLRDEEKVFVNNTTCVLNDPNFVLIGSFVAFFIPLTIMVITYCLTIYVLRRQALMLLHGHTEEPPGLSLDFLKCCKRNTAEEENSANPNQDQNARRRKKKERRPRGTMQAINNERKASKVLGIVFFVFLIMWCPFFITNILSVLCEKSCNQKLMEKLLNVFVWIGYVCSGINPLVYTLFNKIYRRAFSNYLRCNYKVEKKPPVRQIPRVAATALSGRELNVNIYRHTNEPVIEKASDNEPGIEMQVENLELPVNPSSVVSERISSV", "assay": "CNS selectivity panel: Serotonin 5-HT2c", "format": "binding", "conditions": "1 uM"}}, "data": [{"smiles": "FCCCc1ccc2c(c1)[nH]c1ccncc12", "note": "[T794, 7-(3-Fluoropropyl)-5H-pyrido[4,3-b]indole]", "values": [{"measurement": "Kd", "setting": "tau", "value": 30, "unit": "nM"}, {"measurement": "selectivity (tau/Ab)", "setting": "tau/Ab", "value": 17, "unit": "x"}, {"measurement": "GM Intensity (comp. with W372)", "setting": "[1]", "value": 14, "unit": "%"}, {"measurement": "background (normal brain 32566) PSL/mm2", "setting": "[2]", "value": 97, "unit": "PSL/mm2"}, {"measurement": "Tx/tau/amyloid correlation", "setting": "tau/amyloid", "value": "yes"}, {"measurement": "Brain uptake", "setting": "[3]", "value": "yes (4 rats, 4 mice)"}, {"measurement": "Brain uptake", "setting": "[4]", "value": "excellent"}, {"measurement": "human hepatocytes (metabolic stability)", "setting": "human hepatocytes", "value": "stable"}, {"measurement": "IC50", "setting": "AchE", "value": 5000, "unit": "nM"}, {"measurement": "inhibition at 1 µM", "setting": "MAO-A", "value": 19, "unit": "%"}, {"measurement": "inhibition at 1 µM", "setting": "MAO-B", "value": 0, "unit": "%"}, {"measurement": "CNS selectivity panel: Norepinephrine transp.", "setting": "Norepinephrine transp.", "value": "transp.(49%)"}, {"measurement": "CNS selectivity panel: Dopamine transp.", "setting": "Dopamine transp.", "value": "transp.(34%)"}, {"measurement": "CNS selectivity panel: Glutamate, NMDA", "setting": "Glutamate, NMDA", "value": "(44%) Monoamine"}, {"measurement": "CNS selectivity panel: Monoamine transp.", "setting": "Monoamine transp.", "value": "transp. (41%)"}, {"measurement": "CNS selectivity panel: Serotonin 5-HT2c", "setting": "Serotonin 5-HT2c", "value": "(33%)"}]}]}
